Measured values reported in patent US20090012103A1, “SUBSTITUTED HETEROCYCLIC COMPOUNDS” (priority 2007, published 2009).

Legend:
hERG potassium channel = hERG potassium channel (Homo sapiens, UniProt Q12809); experiment: hERG screening assay (PatchXpress patch clamp, CHO cell line)
Protocol: Compounds were screened to test their activity in blocking the hERG potassium channel. The hERG channel is heterologously expressed in a CHO (Chinese Hamster Ovary) cell line. Cells are maintained with standard tissue culture procedures and stable channel expression is maintained with 500 μg/ml G418 in the culture medium. Cells are harvested for testing on the PatchXpress automated patch clamp with Accumax (Innovative Cell Technologies, San Diego, Calif.) to isolate single cells.
The following solutions are used for electrophysiological recordings. The external solution contains: 2 mM CaCl2; 2 mM MgCl2; 4 mM KCl; 150 mM NaCl; 10 mM Glucose; 10 mM HEPES (pH 7.4 with 1M NaOH, osmolarity).
hERG channels are activated when the voltage is stepped to +20 mV from the −80 mV holding potential (see FIG. 3). During a 5 second step at +20 mV, the channels activate and then largely inactivate, so the currents are relatively small. Upon returning to −50 mV from +20 mV, hERG currents transiently become much larger as inactivation is rapidly removed and then the channel closes. The first step to −50 mV for 300 ms is used as a baseline for measuring the peak amplitude during the step to −50 mV after channel activation. The peak current at −50 mV is measured both under control conditions and after addition of compound.
All compounds are prepared as 10 mM DMSO stocks in glass vials. Stock solutions are mixed by vigorous vortexing and sonication for about 2 minutes at room temperature. For testing, compounds are diluted in glass vials using an intermediate dilution step in pure DMSO and then further diluted to working concentrations in external solution. Dilutions are prepared no longer than 20 minutes before use.
After achieving the whole-cell configuration, cells are monitored for 90 seconds to assess stability and washed with external solution for 66 seconds. The voltage protocol described above is then applied to the cells every 12 seconds and throughout the whole procedure. Only cells with stable recording parameters and meeting specified health criteria are allowed to enter the compound addition procedure.
External solution containing 0.1% DMSO (vehicle) is applied to the cells first to establish the control peak current amplitude. After allowing the current to stabilize for 3 to 5 minutes, 1 μM and then 10 μM test compounds are applied. Each compound concentration is added 4 times and cells are kept in test solution until the effect of the compound reaches steady state or for a maximum of 12 minutes. […] Washout in the external solution compartment is performed until the recovery of the current reaches steady state. Data are analyzed using DataXpress, Clampfit (Molecular Devices, Inc., Sunnyvale) and Origin 7 (Originlab Corp.)

[1] = target: wild-type human cardiac sodium channel, hNav1.5 (Homo sapiens, UniProt Q14524); experiment: Late INa screening assay (late sodium current, PatchXpress whole cell patch clamp); format: cell-based; conditions: for inhibition at 10 µM: compound at 10 μM, read-out: Late INa % blk; for effect on late sodium current: result in words
Sequence of wild-type human cardiac sodium channel, hNav1.5 (Q14524 whole entry): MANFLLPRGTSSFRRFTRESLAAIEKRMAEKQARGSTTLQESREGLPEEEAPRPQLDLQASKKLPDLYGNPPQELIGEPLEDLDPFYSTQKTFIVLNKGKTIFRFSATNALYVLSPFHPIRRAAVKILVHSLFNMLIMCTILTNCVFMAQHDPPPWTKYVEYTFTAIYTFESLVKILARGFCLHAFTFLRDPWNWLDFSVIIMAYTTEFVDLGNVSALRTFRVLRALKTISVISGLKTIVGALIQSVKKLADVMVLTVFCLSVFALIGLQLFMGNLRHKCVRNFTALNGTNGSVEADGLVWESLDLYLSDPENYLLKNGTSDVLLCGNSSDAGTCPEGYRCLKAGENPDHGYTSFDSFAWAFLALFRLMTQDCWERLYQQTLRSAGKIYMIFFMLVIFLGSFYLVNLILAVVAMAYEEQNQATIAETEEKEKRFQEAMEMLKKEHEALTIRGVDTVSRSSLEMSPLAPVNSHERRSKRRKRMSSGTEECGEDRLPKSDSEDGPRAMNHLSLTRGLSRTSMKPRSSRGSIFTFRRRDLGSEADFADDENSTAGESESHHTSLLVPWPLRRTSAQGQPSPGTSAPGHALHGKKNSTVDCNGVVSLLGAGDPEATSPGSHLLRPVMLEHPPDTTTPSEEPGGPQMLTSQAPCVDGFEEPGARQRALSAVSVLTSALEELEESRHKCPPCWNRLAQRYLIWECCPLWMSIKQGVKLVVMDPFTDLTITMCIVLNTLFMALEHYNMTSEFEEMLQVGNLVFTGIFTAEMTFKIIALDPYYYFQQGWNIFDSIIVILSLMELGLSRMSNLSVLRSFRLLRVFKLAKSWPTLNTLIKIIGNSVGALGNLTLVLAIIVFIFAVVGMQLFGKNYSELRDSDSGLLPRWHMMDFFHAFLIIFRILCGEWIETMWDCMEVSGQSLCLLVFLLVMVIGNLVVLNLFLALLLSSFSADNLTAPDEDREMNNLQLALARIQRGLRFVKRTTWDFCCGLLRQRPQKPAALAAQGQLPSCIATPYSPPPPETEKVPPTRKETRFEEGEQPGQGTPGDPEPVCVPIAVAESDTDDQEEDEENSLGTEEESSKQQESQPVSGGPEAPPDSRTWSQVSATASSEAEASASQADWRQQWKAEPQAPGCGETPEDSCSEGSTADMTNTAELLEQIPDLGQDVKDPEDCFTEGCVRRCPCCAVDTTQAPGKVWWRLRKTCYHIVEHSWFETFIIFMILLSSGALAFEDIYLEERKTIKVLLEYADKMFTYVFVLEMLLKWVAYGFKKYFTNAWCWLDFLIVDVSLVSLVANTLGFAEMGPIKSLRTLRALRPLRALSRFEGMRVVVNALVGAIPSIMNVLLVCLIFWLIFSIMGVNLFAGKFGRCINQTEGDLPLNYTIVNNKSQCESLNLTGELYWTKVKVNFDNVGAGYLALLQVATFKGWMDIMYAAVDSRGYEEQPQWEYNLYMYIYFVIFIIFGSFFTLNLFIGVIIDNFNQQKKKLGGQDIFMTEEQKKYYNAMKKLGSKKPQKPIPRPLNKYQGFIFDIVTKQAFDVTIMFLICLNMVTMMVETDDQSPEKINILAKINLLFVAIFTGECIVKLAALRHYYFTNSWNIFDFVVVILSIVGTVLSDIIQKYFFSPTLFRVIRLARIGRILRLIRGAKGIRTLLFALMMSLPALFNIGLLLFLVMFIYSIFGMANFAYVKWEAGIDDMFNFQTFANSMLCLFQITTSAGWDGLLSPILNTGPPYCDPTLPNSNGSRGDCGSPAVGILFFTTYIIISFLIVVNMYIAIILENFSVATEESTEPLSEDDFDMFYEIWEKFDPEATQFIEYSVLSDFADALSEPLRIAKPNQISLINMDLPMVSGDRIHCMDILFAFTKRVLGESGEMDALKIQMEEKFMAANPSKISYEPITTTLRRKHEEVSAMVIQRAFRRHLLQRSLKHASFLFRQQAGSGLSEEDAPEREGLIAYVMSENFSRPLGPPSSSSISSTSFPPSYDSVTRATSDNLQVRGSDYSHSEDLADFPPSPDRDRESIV

Sequence of hERG potassium channel (Q12809 whole entry): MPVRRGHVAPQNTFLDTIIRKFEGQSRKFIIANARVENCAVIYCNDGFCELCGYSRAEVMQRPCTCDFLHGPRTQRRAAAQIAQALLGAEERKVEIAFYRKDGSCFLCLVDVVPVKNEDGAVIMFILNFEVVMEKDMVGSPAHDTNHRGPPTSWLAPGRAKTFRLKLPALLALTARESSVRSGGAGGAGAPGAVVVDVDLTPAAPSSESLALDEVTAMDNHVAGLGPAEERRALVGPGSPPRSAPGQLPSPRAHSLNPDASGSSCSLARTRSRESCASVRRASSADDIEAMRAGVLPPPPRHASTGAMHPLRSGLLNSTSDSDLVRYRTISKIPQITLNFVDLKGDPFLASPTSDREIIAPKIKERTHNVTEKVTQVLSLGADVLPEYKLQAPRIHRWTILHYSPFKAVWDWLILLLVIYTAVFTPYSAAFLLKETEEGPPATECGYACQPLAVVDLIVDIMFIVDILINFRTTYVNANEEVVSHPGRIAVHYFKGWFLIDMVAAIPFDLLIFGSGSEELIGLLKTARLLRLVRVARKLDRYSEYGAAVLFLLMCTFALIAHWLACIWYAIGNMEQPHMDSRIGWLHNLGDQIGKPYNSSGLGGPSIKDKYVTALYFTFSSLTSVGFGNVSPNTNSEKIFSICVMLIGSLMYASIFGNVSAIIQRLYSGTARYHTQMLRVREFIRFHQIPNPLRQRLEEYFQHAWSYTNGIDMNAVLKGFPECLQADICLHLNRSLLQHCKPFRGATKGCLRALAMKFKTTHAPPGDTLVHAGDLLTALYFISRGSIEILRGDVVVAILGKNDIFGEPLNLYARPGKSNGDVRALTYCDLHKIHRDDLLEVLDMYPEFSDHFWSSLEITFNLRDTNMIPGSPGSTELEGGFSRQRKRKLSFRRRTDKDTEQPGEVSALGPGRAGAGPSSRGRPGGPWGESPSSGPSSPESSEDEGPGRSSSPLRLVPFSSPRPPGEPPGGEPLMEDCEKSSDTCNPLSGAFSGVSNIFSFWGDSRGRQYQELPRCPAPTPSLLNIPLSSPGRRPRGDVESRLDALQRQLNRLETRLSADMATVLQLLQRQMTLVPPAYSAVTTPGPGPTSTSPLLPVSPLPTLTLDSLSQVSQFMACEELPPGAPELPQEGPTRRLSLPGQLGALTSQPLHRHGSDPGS

## CC1=C(C(=O)OCc2ccccc2)C(c2sccc2-c2ccc(F)cc2)n2nnnc2N1 (stereo not drawn) [PT-397, benzyl 7-(3-(4-fluorophenyl)thiophen-2-yl)-5-methyl-4,7-dihydrotetrazolo[1,5-a]pyrimidine-6-carboxylate]
hERG potassium channel; 1 μM
  hERG Patch Clamp hERG % blk: 10.0%
hERG potassium channel; 10 μM
  hERG Patch Clamp hERG % blk: 25.0%
[1]
  inhibition at 10 µM: 69.1%

## CC1=C(C(=O)NCc2ccccc2)C(c2ccc3ccccc3c2)n2nnnc2N1 (stereo not drawn) [PT-068, N-benzyl-5-methyl-7-(naphthalen-2-yl)-4,7-dihydrotetrazolo[1,5-a]pyrimidine-6-carboxamide]
hERG potassium channel; 1 μM
  hERG Patch Clamp hERG % blk: 14.0%
hERG potassium channel; 10 μM
  hERG Patch Clamp hERG % blk: 22.5%
[1]
  inhibition at 10 µM: 14.3%

## COC(=O)c1ccc(-c2n[nH]c3c2C(c2cccc4ccccc24)C2=C(COC2=O)N3)cc1 (stereo not drawn) [PT-085, methyl 4-(4-(naphthalen-1-yl)-5-oxo-4,5,7,8-tetrahydro-1H-furo[3,4-b]pyrazolo[4,3-e]pyridin-3-yl)benzoate]
hERG potassium channel; 1 μM
  hERG Patch Clamp hERG % blk: 34.0%
hERG potassium channel; 10 μM
  hERG Patch Clamp hERG % blk: 44.5%
[1]
  inhibition at 10 µM: 9.1%

## CC1=C(C(=O)OCc2ccccc2)C(c2c3ccccc3cc3ccccc23)n2nnnc2N1 (stereo not drawn) [PT-039, benzyl 7-(anthracen-9-yl)-5-methyl-4,7-dihydrotetrazolo[1,5-a]pyrimidine-6-carboxylate]
hERG potassium channel; 1 μM
  hERG Patch Clamp hERG % blk: 10.0%
hERG potassium channel; 10 μM
  hERG Patch Clamp hERG % blk: 27.5%
[1]
  inhibition at 10 µM: 82.1%

## CC1=C(C(=O)OCc2ccccc2)C(c2occc2-c2ccc(F)cc2)n2nnnc2N1 (stereo not drawn) [PT-396, benzyl 7-(3-(4-fluorophenyl)furan-2-yl)-5-methyl-4,7-dihydrotetrazolo[1,5-a]pyrimidine-6-carboxylate]
hERG potassium channel; 1 μM
  hERG Patch Clamp hERG % blk: 10.0%
hERG potassium channel; 10 μM
  hERG Patch Clamp hERG % blk: 32.0%
[1]
  inhibition at 10 µM: 80.7%

## CC1=C(C(=O)N2CCN(c3ccccc3)CC2)C(c2ccc3ccccc3c2)C2=C(CCCC2=O)N1 (stereo not drawn) [PT-165, 2-methyl-4-(naphthalen-2-yl)-3-(4-phenylpiperazine-1-carbonyl)-4,6,7,8-tetrahydroquinolin-5(1H)-one]
hERG potassium channel; 1 μM
  hERG Patch Clamp hERG % blk: 30.5%
hERG potassium channel; 10 μM
  hERG Patch Clamp hERG % blk: 64.5%
[1]
  effect on late sodium current: potentiated late sodium current

## COc1ccc(COC(=O)C2=C(C)Nc3nnnn3C2c2cccc3ccccc23)cc1OC (stereo not drawn) [PT-061, 3,4-dimethoxybenzyl 5-methyl-7-(naphthalen-1-yl)-4,7-dihydrotetrazolo[1,5-a]pyrimidine-6-carboxylate]
hERG potassium channel; 1 μM
  hERG Patch Clamp hERG % blk: 24.0%
hERG potassium channel; 10 μM
  hERG Patch Clamp hERG % blk: 46.5%
[1]
  inhibition at 10 µM: 37.3%

## CCCC1=C(C(=O)OCC)C(c2ccc(C(=O)O)cc2)C2=C(CC(C)(C)CC2=O)N1 (stereo not drawn) [PT-133, 4-(3-(ethoxycarbonyl)-7,7-dimethyl-5-oxo-2-propyl-1,4,5,6,7,8-hexahydroquinolin-4-yl)benzoic acid]
hERG potassium channel; 1 μM
  hERG Patch Clamp hERG % blk: 10.0%
hERG potassium channel; 10 μM
  hERG Patch Clamp hERG % blk: 12.0%
[1]
  inhibition at 10 µM: -27.5%

## CCOC(=O)C1=C(C)Nc2nnnn2C1c1ccccc1-c1cccc(-c2nnn[nH]2)c1 (stereo not drawn) [PT-493, ethyl 7-(3′-(1H-tetrazol-5-yl)biphenyl-2-yl)-5-methyl-4,7-dihydrotetrazolo[1,5-a]pyrimidine-6-carboxylate]
hERG potassium channel; 1 μM
  hERG Patch Clamp hERG % blk: 10.0%
hERG potassium channel; 10 μM
  hERG Patch Clamp hERG % blk: 10.0%
[1]
  inhibition at 10 µM: 0.5%

## CC1=C(C(=O)OCc2ccc(Cn3cccn3)cc2)C(c2cccc3ccccc23)n2nnnc2N1 (stereo not drawn) [PT-279, 4-((1H-pyrazol-1-yl)methyl)benzyl 5-methyl-7-(naphthalen-1-yl)-4,7-dihydrotetrazolo[1,5-a]pyrimidine-6-carboxylate]
hERG potassium channel; 1 μM
  hERG Patch Clamp hERG % blk: 12.5%
hERG potassium channel; 10 μM
  hERG Patch Clamp hERG % blk: 45.0%
[1]
  inhibition at 10 µM: 61.2%

## CC1=C(C(=O)OCc2ccccc2)C(c2sc3ccccc3c2C)n2nnnc2N1 (stereo not drawn) [PT-044, benzyl 5-methyl-7-(3-methylbenzo[b]thiophen-2-yl)-4,7-dihydrotetrazolo[1,5-a]pyrimidine-6-carboxylate]
hERG potassium channel; 1 μM
  hERG Patch Clamp hERG % blk: 16.5%
hERG potassium channel; 10 μM
  hERG Patch Clamp hERG % blk: 40.0%
[1]
  inhibition at 10 µM: 70.7%

## CC1=C(C(=O)OCc2ccccc2)C(c2csc3ccccc23)n2nnnc2N1 (stereo not drawn) [PT-042, benzyl 7-(benzo[b]thiophen-3-yl)-5-methyl-4,7-dihydrotetrazolo[1,5-a]pyrimidine-6-carboxylate]
hERG potassium channel; 1 μM
  hERG Patch Clamp hERG % blk: 11.0%
hERG potassium channel; 10 μM
  hERG Patch Clamp hERG % blk: 52.5%
[1]
  inhibition at 10 µM: 76.5%

## CC1=C(C(=O)OCc2ccccc2)[C@@H](c2ccccc2-c2ccc(Cl)s2)n2nnnc2N1 [PT-237, (R)-benzyl 7-(2-(5-chlorothiophen-2-yl)phenyl)-5-methyl-4,7-dihydrotetrazolo[1,5-a]pyrimidine-6-carboxylate]
hERG potassium channel; 1 μM
  hERG Patch Clamp hERG % blk: 11.5%
hERG potassium channel; 10 μM
  hERG Patch Clamp hERG % blk: 22.5%
[1]
  inhibition at 10 µM: 61.5%

## CCCC1=C(C(=O)OCC)C(c2ccsc2)C2=C(CC(c3ccco3)CC2=O)N1 (stereo not drawn) [PT-150, ethyl 7-(furan-2-yl)-5-oxo-2-propyl-4-(thiophen-3-yl)-1,4,5,6,7,8-hexahydroquinoline-3-carboxylate]
hERG potassium channel; 1 μM
  hERG Patch Clamp hERG % blk: 28.2%
hERG potassium channel; 10 μM
  hERG Patch Clamp hERG % blk: 49.3%
[1]
  inhibition at 10 µM: 52.9%

## CCOC(=O)C1=C(C)NC2=C(C(=O)CCC2)C1c1cccc2ncccc12 (stereo not drawn) [PT-140, ethyl 2-methyl-5-oxo-1,4,5,6,7,8-hexahydro-4,5′-biquinoline-3-carboxylate]
hERG potassium channel; 1 μM
  hERG Patch Clamp hERG % blk: 13.5%
hERG potassium channel; 10 μM
  hERG Patch Clamp hERG % blk: 34.5%
[1]
  inhibition at 10 µM: 6.3%

## CCOC(=O)C1=C(C(C)C)NC(C(C)C)=C(C(=O)OCC)C1c1ccc(Br)s1 [PT-183, diethyl 4-(5-bromothiophen-2-yl)-2,6-diisopropyl-1,4-dihydropyridine-3,5-dicarboxylate]
hERG potassium channel; 1 μM
  hERG Patch Clamp hERG % blk: 10.0%
hERG potassium channel; 10 μM
  hERG Patch Clamp hERG % blk: 10.0%
[1]
  inhibition at 10 µM: 54%

## CC1=C(C(=O)OCc2ccccc2)C(c2ccccc2-c2ccc(C(=O)O)cc2)n2nnnc2N1 (stereo not drawn) [PT-254, 2′-(6-(benzyloxycarbonyl)-5-methyl-4,7-dihydrotetrazolo[1,5-a]pyrimidin-7-yl)biphenyl-4-carboxylic acid]
hERG potassium channel; 1 μM
  hERG Patch Clamp hERG % blk: 15.0%
hERG potassium channel; 10 μM
  hERG Patch Clamp hERG % blk: 20.0%
[1]
  inhibition at 10 µM: 10.7%

## CC1=C(C(=O)N2CCC(c3ccccc3)CC2)C(c2ccsc2)C2=C(CCCC2=O)N1 (stereo not drawn) [PT-163, 2-methyl-3-(4-phenylpiperidine-1-carbonyl)-4-(thiophen-3-yl)-4,6,7,8-tetrahydroquinolin-5(1H)-one]
hERG potassium channel; 1 μM
  hERG Patch Clamp hERG % blk: 15.0%
hERG potassium channel; 10 μM
  hERG Patch Clamp hERG % blk: 53.5%
[1]
  effect on late sodium current: potentiated late sodium current

## CC1=C(C(=O)OCc2ccccc2)C(c2c(Br)sc3ccccc23)n2nnnc2N1 (stereo not drawn) [PT-386, benzyl 7-(2-bromobenzo[b]thiophen-3-yl)-5-methyl-4,7-dihydrotetrazolo[1,5-a]pyrimidine-6-carboxylate]
hERG potassium channel; 1 μM
  hERG Patch Clamp hERG % blk: 10.0%
hERG potassium channel; 10 μM
  hERG Patch Clamp hERG % blk: 16.5%
[1]
  inhibition at 10 µM: 79.2%

## CC(=O)c1ccc(-c2ccccc2C2C(C(=O)OCc3ccccc3)=C(C)Nc3nnnn32)cc1 (stereo not drawn) [PT-415, benzyl 7-(4′-acetylbiphenyl-2-yl)-5-methyl-4,7-dihydrotetrazolo[1,5-a]pyrimidine-6-carboxylate]
hERG potassium channel; 1 μM
  hERG Patch Clamp hERG % blk: 10.5%
hERG potassium channel; 10 μM
  hERG Patch Clamp hERG % blk: 38.5%
[1]
  inhibition at 10 µM: 75.4%

## N#CC1=C(N)OC2=C(C(=O)CC(c3ccccc3)C2)C1c1ccco1 (stereo not drawn) [PT-104, 2-amino-4-(furan-2-yl)-5-oxo-7-phenyl-5,6,7,8-tetrahydro-4H-chromene-3-carbonitrile]
hERG potassium channel; 1 μM
  hERG Patch Clamp hERG % blk: 18.0%
hERG potassium channel; 10 μM
  hERG Patch Clamp hERG % blk: 46.0%
[1]
  inhibition at 10 µM: 14.3%
